Test results reported in patent US11198710B2, “Transgenic plant having herbicide resistance” (priority 2016, dated 2021).

Assays:
[1] = test system: wild-type rice plant (Nipponbare); assay: Sensitivity of wild-type rice (Nipponbare) to VLCFAE-inhibiting herbicides, gellan gum medium; format: in vivo; conditions: Oryza sativa, 168 h
Method: Whether or not a rice plant comprising the TaQ8GTC0 gene introduced therein has VLCFAE-inhibiting herbicide resistance was determined on the basis of a difference in sensitivity of rice between transformant and wild-type. Accordingly, the sensitivity of the wild-type rice plant (Nipponbare) to VLCFAE-inhibiting herbicides used in the glutathione conjugation activity test was examined as described below.
The growth inhibition test was carried out using a gellan gum medium. Hoagland's mix and 3 g of gellan gum were suspended in 1 liter of distilled water and thoroughly dissolved therein by heating in a microwave. A fraction of the resultant (15 ml) was poured in a tubular bottle before it was cooled. When the herbicide (an acetone solution) was to be incorporated thereinto, the herbicide was simultaneously added at the time of filling of the gellan gum medium into the tubular bottle, followed by thorough mixing (final acetone concentration: 0.1%). Rice hulls were soaked in a 50-fold diluted sodium hypochlorite solution (antiformin) (Wako) for approximately 20 minutes and then thoroughly rinsed with water. Sterilized seeds were soaked in distilled water and allowed to stand at 27° C. for germination (for approximately 2 days). Germinating seeds were transferred with the sprout side up to a gellan gum medium containing herbicide (the tubular bottle). Subsequently, these samples, together with a beaker filled with distilled water, were placed in a transparent case, which was then covered with a clear plastic wrap. These samples were grown at 27° C. under fluorescent light illumination (14 hours of a light period and 10 hours of a dark period) for 1 week, the plants were sampled, and the plant heights were then measured. Inhibition of shoot growth was determined by comparison to control plant grown in the absence of herbicide and the concentration required for 50% inhibition (IC50) was determined by the Probit method.

ZmB8A3K0 = assay: Pyroxasulfone metabolizing activity based on the growth of cultured rice cells in medium; format: cell-based, maize; conditions: cultured rice cells with ZmB8A3K0 gene; N6D medium, 100 μM (10^−4M) pyroxasulfone, 2 weeks
Method: (§1) The 2 lineages of cultured rice cells comprising the maize GST genes introduced thus prepared and the KLB-279 cultured transgenic rice cells (the control cells) were seeded on N6D medium, and pyroxasulfone resistance was inspected based on the growth of cultured rice cells 2 weeks later. Pyroxasulfone was subjected to the test as an acetone solution, the final acetone concentration to be added to the medium was 1%, and the final drug concentration was 10^−4 M.

ZmQ9FQD1 = assay: as above; format: cell-based, maize; conditions: cultured rice cells with ZmQ9FQD1 gene; N6D medium, 100 μM (10^−4M) pyroxasulfone, 2 weeks
Method: as §1

cultured rice cells = conditions: culture in a pyroxasulfone-containing liquid medium; cited from earlier work

Cn1nc(C(F)(F)F)c(CS(=O)(=O)C2=NOC(C)(C)C2)c1OC(F)F [Pyroxasulfone, 3-[5-(difluoromethoxy)-1-methyl-3-(trifluoromethyl)pyrazol-4-ylmethylsulfonyl]-4,5-dihydro-5,5-dimethyl-1,2-oxazole]
minimal effective concentration ([1]; minimal concentration at which growth of wild-type rice is inhibited, read-out: Minimal inhibitory concentration): 0.075 µM | IC50 ([1]; shoot growth, 1 week, Probit method, read-out: I50): 48 nM | pyroxasulfone metabolizing activity (growth of cultured rice cells) (ZmB8A3K0): no pyroxasulfone metabolizing activity | pyroxasulfone metabolizing activity (growth of cultured rice cells) (ZmQ9FQD1): no pyroxasulfone metabolizing activity | C15:0 (pentadecanoic acid) content (cultured rice cells): remarkably increased | content of very-long-chain fatty acid (VLCFA) (cultured rice cells): drastically decreases
